In the test the test system is BDF1 mice, B16 melanoma ip, median survival T/C. Nature of the test: NCI In Vivo Anticancer Drug Screen. Data for tumor model B16 Melanoma (intraperitoneal) in B6D2F1 (BDF1) mice. The settings on record: endpoint: median survival time, higher = longer survival. The essentials:
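Antitumor activity is assessed in mice bearing a transplanted tumor, with survival or tumor size compared against vehicle-dosed controls and expressed as T/C.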

The mark [1] stands for this setting: dose: 25.0 mg/kg/injection, schedule: Q01DX009 (ip), vehicle: saline with Tween-80.
[2] abbreviates: dose: 100.0 mg/kg/injection, schedule: Q01DX009 (ip), vehicle: saline with Tween-80.
Where [3] appears, read: dose: 6.25 mg/kg/injection, schedule: Q01DX009 (ip), vehicle: water.
Where [4] appears, read: dose: 12.5 mg/kg/injection, schedule: Q01DX009 (ip), vehicle: water.
[5] abbreviates: dose: 50.0 mg/kg/injection, schedule: Q01DX009 (ip), vehicle: saline.
Setting [6] is: dose: 100.0 mg/kg/injection, schedule: Q01DX009 (ip), vehicle: saline.
Where [7] appears, read: dose: 100.0 mg/kg/injection, schedule: Q04DX003 (ip), vehicle: Klucel (hydroxypropylcellulose) (HPC).
Where [8] appears, read: dose: 200.0 mg/kg/injection, schedule: Q04DX003 (ip), vehicle: Klucel (hydroxypropylcellulose) (HPC).
[9] abbreviates: dose: 25.0 micrograms/kg/injection, schedule: Q01DX009 (ip), vehicle: saline with Tween-80.
The mark [10] stands for this setting: dose: 50.0 micrograms/kg/injection, schedule: Q01DX009 (ip), vehicle: saline with Tween-80.
Where [11] appears, read: dose: 100.0 micrograms/kg/injection, schedule: Q01DX009 (ip), vehicle: saline with Tween-80.
[12] abbreviates: dose: 200.0 micrograms/kg/injection, schedule: Q01DX009 (ip), vehicle: saline with Tween-80.

The structures appear in SMILES notation. Where “and” joins values, the source holds several entries; their conditions need not be identical. Equal values may be shown once. Toxic doses and inconclusive results are not listed.

These results are taken from PubChem BioAssay AID192 (DTP/NCI, 2004).

For the molecule `CC1=CC(C)(C)Nc2ccc(CSc3ccccc3)cc21`, the T/C reads like this: (dose: 12.5 mg/kg/injection, schedule: Q01DX009 (ip), vehicle: saline + Tween-80 + alcohol) 112 % of control; (dose: 25.0 mg/kg/injection, schedule: Q01DX009 (ip), vehicle: saline + Tween-80 + alcohol) 117 % of control; (dose: 50.0 mg/kg/injection, schedule: Q01DX009 (ip), vehicle: saline + Tween-80 + alcohol) 111 % of control; (dose: 100.0 mg/kg/injection, schedule: Q01DX009 (ip), vehicle: saline + Tween-80 + alcohol) 96 % of control.

On to `N=C(N)SCCCCCCCCCCSC(=N)N`, for which the T/C reads like this: (dose: 6.25 mg/kg/injection, schedule: Q01DX009 (ip), vehicle: saline with Tween-80) 95 % of control; (dose: 12.5 mg/kg/injection, schedule: Q01DX009 (ip), vehicle: saline with Tween-80) 88 % of control; under setting [1], 86 % of control and 88 % of control.

As for `O=[N+]([O-])c1ccc2ccccc2c1I`, the T/C reads like this: under setting [2], 101 % of control; (dose: 200.0 mg/kg/injection, schedule: Q01DX009 (ip), vehicle: saline with Tween-80) 103 % of control; (dose: 400.0 mg/kg/injection, schedule: Q01DX009 (ip), vehicle: saline with Tween-80) 99 % of control.

As to `N#Cc1c(F)c(F)c(C#N)c(F)c1F`, the T/C (dose: 1.25 mg/kg/injection, schedule: Q01DX009 (ip), vehicle: saline with Tween-80) was 90 % of control and the T/C (dose: 2.5 mg/kg/injection, schedule: Q01DX009 (ip), vehicle: saline with Tween-80) was 90 % of control.

With `O=NNc1ccc(Cl)cn1`, the T/C is, setting by setting: (dose: 1.5 mg/kg/injection, schedule: Q01DX009 (ip), vehicle: water) 104 % of control; (dose: 3.0 mg/kg/injection, schedule: Q01DX009 (ip), vehicle: water) 118 % of control; (dose: 24.0 mg/kg/injection, schedule: Q01DX009 (ip), vehicle: water) 161 % of control.

`Cn1cnc([N+](=O)[O-])c1[Se]c1nc(N)nc2nc[nH]c12`: the T/C (dose: 3.12 mg/kg/injection, schedule: Q01DX009 (ip), vehicle: water) is 109 % of control; the T/C under setting [3] was 117 % of control; the T/C (dose: 11.0 mg/kg/injection, schedule: Q01DX009 (ip), vehicle: other) is 116 % of control; the T/C under setting [4] was 150 % of control; the T/C (dose: 16.5 mg/kg/injection, schedule: Q01DX009 (ip), vehicle: other) is 117 % of control; the T/C (dose: 25.0 mg/kg/injection, schedule: Q01DX009 (ip), vehicle: water) is 153 % of control and 158 % of control.

On to `O=S(=O)(Nc1cccc(C(F)(F)F)c1)c1ccccc1`, for which the T/C is, setting by setting: under setting [1], 108 % of control; (dose: 50.0 mg/kg/injection, schedule: Q01DX009 (ip), vehicle: saline with Tween-80) 101 % of control; under setting [2], 97 % of control.

Regarding `Cc1nn(C2CC(O)C(O)C(CO)O2)c(=O)[nH]c1=O` (stereo unspecified), the T/C runs as follows: under setting [5], 95 % of control; under setting [6], 86 % of control; (dose: 400.0 mg/kg/injection, schedule: Q01DX009 (ip), vehicle: saline) 86 % of control.

Consider `O=C(COc1ccc(Cl)cc1)Nc1ccccc1C(F)(F)F`, for which the T/C under setting [7] was 90 % of control; the T/C under setting [8] was 92 % of control; the T/C (dose: 400.0 mg/kg/injection, schedule: Q04DX003 (ip), vehicle: Klucel (hydroxypropylcellulose) (HPC)) was 90 % of control.

Turning to `CO[C@H]1Nc2c(ccc(C)c2O)C(=O)N2C=C(/C=C/C(N)=O)C[C@@H]12`, the T/C was 111 % of control (dose: 0.05 mg/kg/injection, schedule: Q04DX003 (ip), vehicle: DMSO); 92 % of control (dose: 0.06 mg/kg/injection, schedule: Q01DX009 (ip), vehicle: saline with Tween-80); 101 % of control (dose: 0.1 mg/kg/injection, schedule: Q04DX003 (ip), vehicle: DMSO); 94 % of control (dose: 0.12 mg/kg/injection, schedule: Q01DX009 (ip), vehicle: saline with Tween-80); 120 % of control (dose: 0.2 mg/kg/injection, schedule: Q04DX003 (ip), vehicle: DMSO); 97 % of control (dose: 0.25 mg/kg/injection, schedule: Q01DX009 (ip), vehicle: saline with Tween-80). Besides, the T/C (dose: 0.4 mg/kg/injection, schedule: Q04DX003 (ip), vehicle: DMSO) is 112 % of control; the T/C (dose: 16.5 micrograms/kg/injection, schedule: Q01DX009 (ip), vehicle: saline + alcohol) was 106 % of control; the T/C under setting [9] was 100 % of control; the T/C (dose: 25.0 micrograms/kg/injection, schedule: Q04DX003 (ip), vehicle: saline with Tween-80) is 101 % of control; the T/C (dose: 33.0 micrograms/kg/injection, schedule: Q01DX009 (ip), vehicle: saline + alcohol) is 100 % of control; the T/C under setting [10] is 104 % of control. Further, the T/C reads like this: (dose: 50.0 micrograms/kg/injection, schedule: Q04DX003 (ip), vehicle: saline with Tween-80) 104 % of control; (dose: 66.0 micrograms/kg/injection, schedule: Q01DX009 (ip), vehicle: saline + alcohol) 107 % of control; under setting [11], 96 % of control; (dose: 100.0 micrograms/kg/injection, schedule: Q04DX003 (ip), vehicle: saline with Tween-80) 111 % of control; under setting [12], 95 % of control; (dose: 200.0 micrograms/kg/injection, schedule: Q04DX003 (ip), vehicle: saline with Tween-80) 107 % of control.

Regarding `CC(C)[C@]12O[C@H]1[C@@H]1O[C@]13[C@]1(O[C@H]1C[C@H]1C4=C(CC[C@@]13C)C(=O)OC4)[C@@H]2O`, the T/C (dose: 8.0 micrograms/kg/injection, schedule: Q01DX009 (ip), vehicle: saline + alcohol) was 114 % of control; the T/C (dose: 12.5 micrograms/kg/injection, schedule: Q01DX009 (ip), vehicle: saline with Tween-80) is 119 % of control; the T/C (dose: 16.0 micrograms/kg/injection, schedule: Q01DX009 (ip), vehicle: saline + alcohol) was 109 % of control; the T/C under setting [9] is 112 % of control; the T/C (dose: 32.0 micrograms/kg/injection, schedule: Q01DX009 (ip), vehicle: saline + alcohol) is 104 % of control; the T/C under setting [10] was 124 % of control. Besides, the T/C is 104 % of control (dose: 64.0 micrograms/kg/injection, schedule: Q01DX009 (ip), vehicle: saline + alcohol); 107 % of control under setting [11]; 122 % of control under setting [12]; 100 % of control (dose: 400.0 micrograms/kg/injection, schedule: Q01DX009 (ip), vehicle: saline with Tween-80).

For the molecule `O=C1C2C(C(=O)N1c1ccc(OCc3ccccc3)cc1)C1c3ccccc3C2C2CCCCN21` (stereo unspecified), the T/C (dose: 3.13 mg/kg/injection, schedule: Q01DX009 (ip), vehicle: water) was 103 % of control; the T/C under setting [3] was 98 % of control; the T/C under setting [4] is 104 % of control.

Turning to `C#CCC1(OC(N)=O)CCCCC1`, the T/C by setting is: (dose: 6.25 mg/kg/injection, schedule: Q04DX003 (ip), vehicle: Klucel (hydroxypropylcellulose) (HPC)) 99 % of control; (dose: 12.5 mg/kg/injection, schedule: Q01DX009 (ip), vehicle: saline) 104 % of control; (dose: 12.5 mg/kg/injection, schedule: Q04DX003 (ip), vehicle: Klucel (hydroxypropylcellulose) (HPC)) 97 % of control; (dose: 25.0 mg/kg/injection, schedule: Q01DX009 (ip), vehicle: saline) 100 % of control; (dose: 25.0 mg/kg/injection, schedule: Q04DX003 (ip), vehicle: Klucel (hydroxypropylcellulose) (HPC)) 97 % of control; under setting [5], 89 % of control. Besides, the T/C is 98 % of control (dose: 50.0 mg/kg/injection, schedule: Q04DX003 (ip), vehicle: Klucel (hydroxypropylcellulose) (HPC)); 87 % of control under setting [6]; 103 % of control under setting [7]; 95 % of control under setting [8].
